{"source": "patent US10906977B2", "about": "“Enhancing the therapeutic activity of immune checkpoint inhibitor” (Maine Medical Center Research Institute, priority 2016, dated 2021)", "key": {"fibroblasts": {"test_system": "fibroblasts", "test": "Growth factor-induced fibroblast migration on denatured collagen", "assay_type": "cell-based, human", "settings": "FGF-2 20 ng/ml; FIG. 22B, 22E, 24D", "method": "Transwell membranes (8.0 um pore size) were coated with 5 μg/ml of native or denatured collagen for 12 hrs at […] as described previously (13). Migration buffer containing RPMI 1640, 1 mM MgCl2, 0.2 mM MnCl2 and 0.5% BSA in the presence or absence of 5× concentrated serum free SKOV-3 CM or 20 ng/ml FGF-2 was placed in the lower chambers. SKOV-3 or fibroblasts (1×105) were resuspended in migration buffer containing RPMI 1640, 1 mM MgCl2, 0.2 mM MnCl2 and 0.5% BSA in the presence or absence of antibodies directed to the HU177 epitope, or α10β1, (10 μg/ml) or 100 uM of the MEK inhibitor ([…]). Cells were added to the top chamber and allowed to migrate from 2 to 4 hrs. Cells remaining on the top of the membranes were removed and cells that had migrated to the underside of the membrane were quantified by direct cell counts of crystal violet stained cells or by measuring the optical density of eluted cell-associated crystal violet dye as previously described (15). Assays were completed at least 3×."}, "[1]": {"test_system": "chick chorioallantoic membrane (CAM)", "test": "Chick CAM angiogenesis induced by soluble RGD collagen peptides", "assay_type": "in vivo", "settings": "soluble peptide; FIG. 5C", "method": "(§1) The chick chorioallantoic membrane (CAM) assays were carried out with some modifications (19). For all experiments CAMs of 10-day-old chick embryos obtained from Charles River (North Franklin, Conn.) were separated from the shell membrane. Filter discs either non-treated (inflammation assays) pretreated (angiogenesis assays) with cortisone acetate (3.0 mg/ml) containing RPMI only or FGF-2 (40 ng). CAMs were either non-treated or treated topically with Mab XL313, XL166 or a non-specific control antibody (10 μg/embryo every 24 h for three consecutive treatments). […] At the end of the incubation period the embryos were sacrificed and the CAM tissues were analyzed. Angiogenesis was quantified by counting the number of angiogenic branching blood vessels within the area of the filter disc. The angiogenic index was determined by subtracting the mean number of blood vessel branch points from untreated CAMs from each experimental condition. Eight to twelve embryos were used per condition and experiments were repeated at least three times."}, "human dermal fibroblasts": {"test_system": "human dermal fibroblasts", "test": "Cell adhesion to immobilized collagen RGD peptides", "assay_type": "cell-based", "settings": "peptide immobilized 100 μg/ml", "method": "(§2) RGD peptides (P-1, P-2, P-3, P-4, P-5, and P-C) were immobilized (100 μg/ml) to wells. HUVEC, HMVEC, HRMVEC, and HDF cells were suspended in adhesion buffer (RPMI containing 1 mM MgCl2, 0.2 mM MnCl2 and 0.5% BSA) and 1×10^5 cells were seeded into the wells in the presence or absence of P4C10, LM609, P1F6 or control antibodies (100 μg/ml). Cells were allowed to attach for 25 min at 37° C. Media containing non-attached cells was aspirated and attached cells were washed with PBS and stained with crystal violet. Cell adhesion was quantified by measuring the optical density of eluted dye. Adhesion assays were completed at least three times with triplicate wells."}, "[2]": {"test_system": "human retinal microvascular endothelial cells (HRMVEC)", "test": "Cell adhesion to immobilized collagen RGD peptides", "assay_type": "cell-based", "settings": "peptide immobilized 100 μg/ml", "method": "as §2"}, "[3]": {"test_system": "human microvascular endothelial cells (HMVEC)", "test": "Cell adhesion to immobilized collagen RGD peptides", "assay_type": "cell-based", "settings": "peptide immobilized 100 μg/ml", "method": "as §2"}, "[4]": {"test_system": "human umbilical vein endothelial cell (HUVEC)", "test": "Cell adhesion to immobilized collagen RGD peptides", "assay_type": "cell-based", "settings": "peptide immobilized 100 μg/ml; FIG. 1A", "method": "as §2"}, "[5]": {"test_system": "chick chorioallantoic membrane (CAM)", "test": "Chick CAM inflammation induced by soluble RGD collagen peptides", "assay_type": "in vivo", "settings": "FIG. 5D", "method": "as §1"}, "[6]": {"test_system": "chick chorioallantoic membrane (CAM)", "test": "Chick CAM inflammation assay, FGF-2 induced, no cortisone acetate", "assay_type": "in vivo", "method": "The chick chorioallantoic membrane (CAM) assays were carried out with some modifications (19). For all experiments CAMs of 10-day-old chick embryos obtained from Charles River (North Franklin, Conn.) were separated from the shell membrane. Filter discs either non-treated (inflammation assays) pretreated (angiogenesis assays) with cortisone acetate (3.0 mg/ml) containing RPMI only or FGF-2 (40 ng). CAMs were either non-treated or treated topically with Mab XL313, XL166 or a non-specific control antibody (10 μg/embryo every 24 h for three consecutive treatments). For peptide induction experiments, CAMs were stimulated with 100 ng/ml of the RGD peptides (P-1, P-2, P-C) in the presence or absence of the P38MAPK inhibitor, SB202190 (10 μM). At the end of the incubation period the embryos were sacrificed and the CAM tissues were analyzed. Angiogenesis was quantified by counting the number of angiogenic branching blood vessels within the area of the filter disc. The angiogenic index was determined by subtracting the mean number of blood vessel branch points from untreated CAMs from each experimental condition. Eight to twelve embryos were used per condition and experiments were repeated at least three times.\nCAMs examined for accumulation of granulation tissue were harvested, fixed in 4% PFA and paraffin embedded and sectioned (4 μm) and stained with Giemsa. CAM tissues analyzed via immunofluorescence were harvested, embedded with OCT, snap frozen and sectioned ([…]). Frozen sections were fixed in 50% methanol/50% acetone, air dried and blocked with 2.5% BSA for 1 h at 37° C. For expression of the XL313 and XL166 epitopes as well as monocyte/macrophages, FGF-2 stimulated CAM tissues were stained with Mabs XL313, XL166 (50 μg/ml) or KUL1 (1:250) and then incubated with Alexa-488 labeled secondary antibodies (1:2000 dilution). […] Using a similar strategy, sections of RGD peptide-treated CAM tissues were analyzed for phosphorylated-P38MAPK in angiogenic vessels by co-incubation of anti-phospho-P38MAPK (1:50) and anti-vWf (1:500) antibodies. […]"}, "XL313 epitope": {"test_system": "XL313 epitope", "test": "Circulating Mab XL313 reactive epitope in chick embryo serum (solid-phase ELISA)", "assay_type": "in vivo", "settings": "serum collected three days after FGF-2 stimulation; FIG. 5A", "source_text": "FIG. 5A-FIG. 5D are bar graphs depicting the induction of angiogenesis and inflammation in vivo by soluble RGDKGE (SEQ ID NO: 1) but not a related RGDAPG (SEQ ID NO: 11) containing collagen epitope. FIG. 5A is a bar graph depicting serum from chick embryos in which the CAMs had been either not stimulated (NT) or stimulated with FGF-2 was collected. Relative levels of circulating Mab XL313 reactive epitope were quantified by solid-phase ELISA. Data represent mean Mab XL313 reactivity±S.E (N=12 to 13). FIG. 5B is a bar graph depicting quantification of dose dependent induction of angiogenesis by RGDKGE (SEQ ID NO: 1) containing collagen peptide P-2. […] FIG. 5C is a bar graph depicting quantification of CAM angiogenesis associated with RGD containing collagen peptides P-1 (KGDRGDAPG; SEQ ID NO: 2), P-2 (QGPRGDKGE; SEQ ID NO: 3) or control peptide P-C (QGPSGSPGE; SEQ ID NO: 4). […] FIG. 5D is a bar graph depicting the quantification of CAM inflammation associated with RGD containing collagen peptides P-1 (KGDRGDAPG; SEQ ID NO: 2), P-2 (QGPRGDKGE; SEQ ID NO: 3) or control peptide P-C (QGPSGSPGE (SEQ ID NO: 4)). […]\nDue to the differential expression and bio-distribution of the RGDKGE (SEQ ID NO: 1) epitope in angiogenic CAM tissues and its expression in macrophage-conditioned medium, it was determined whether a soluble circulating form of this RGDKGE (SEQ ID NO: 1) epitope could be generated. […]"}, "[7]": {"target": "T1, integrin αvβ3 on cells (HUVEC endothelial cells, M21 melanoma cells, human T-cells) (human, UniProt P06756 31-1048; P05106 27-788)", "T1 construct": "whole, on cells; Endogenous receptor on the cells used in adhesion and signalling assays; also called β3 integrin", "T1 sequence (P06756 31-1048, chain 1 of 2)": "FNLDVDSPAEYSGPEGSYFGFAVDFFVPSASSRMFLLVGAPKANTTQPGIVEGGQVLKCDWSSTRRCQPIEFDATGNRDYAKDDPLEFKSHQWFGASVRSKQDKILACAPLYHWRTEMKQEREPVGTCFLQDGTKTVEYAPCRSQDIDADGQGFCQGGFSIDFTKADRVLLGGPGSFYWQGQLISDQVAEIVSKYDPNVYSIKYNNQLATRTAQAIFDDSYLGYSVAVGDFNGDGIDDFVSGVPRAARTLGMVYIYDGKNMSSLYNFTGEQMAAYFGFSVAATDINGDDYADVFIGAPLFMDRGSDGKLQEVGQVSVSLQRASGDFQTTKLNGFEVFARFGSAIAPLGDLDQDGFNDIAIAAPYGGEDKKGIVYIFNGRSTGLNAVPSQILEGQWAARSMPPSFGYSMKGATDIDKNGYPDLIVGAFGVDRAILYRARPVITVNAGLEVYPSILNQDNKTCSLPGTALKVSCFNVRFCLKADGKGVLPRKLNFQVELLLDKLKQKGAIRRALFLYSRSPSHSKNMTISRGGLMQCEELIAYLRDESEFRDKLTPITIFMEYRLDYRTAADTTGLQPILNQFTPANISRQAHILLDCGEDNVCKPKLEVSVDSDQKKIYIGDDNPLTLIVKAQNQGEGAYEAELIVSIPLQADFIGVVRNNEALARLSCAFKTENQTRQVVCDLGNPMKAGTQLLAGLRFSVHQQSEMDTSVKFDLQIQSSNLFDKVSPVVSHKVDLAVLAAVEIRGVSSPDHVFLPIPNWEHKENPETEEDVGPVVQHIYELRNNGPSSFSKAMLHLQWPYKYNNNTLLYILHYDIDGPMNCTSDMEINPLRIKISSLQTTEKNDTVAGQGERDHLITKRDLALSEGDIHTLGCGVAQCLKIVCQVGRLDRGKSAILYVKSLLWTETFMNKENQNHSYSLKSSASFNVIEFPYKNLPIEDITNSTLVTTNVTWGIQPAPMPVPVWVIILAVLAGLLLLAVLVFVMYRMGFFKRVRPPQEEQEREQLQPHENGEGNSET", "T1 sequence (P05106 27-788, chain 2 of 2)": "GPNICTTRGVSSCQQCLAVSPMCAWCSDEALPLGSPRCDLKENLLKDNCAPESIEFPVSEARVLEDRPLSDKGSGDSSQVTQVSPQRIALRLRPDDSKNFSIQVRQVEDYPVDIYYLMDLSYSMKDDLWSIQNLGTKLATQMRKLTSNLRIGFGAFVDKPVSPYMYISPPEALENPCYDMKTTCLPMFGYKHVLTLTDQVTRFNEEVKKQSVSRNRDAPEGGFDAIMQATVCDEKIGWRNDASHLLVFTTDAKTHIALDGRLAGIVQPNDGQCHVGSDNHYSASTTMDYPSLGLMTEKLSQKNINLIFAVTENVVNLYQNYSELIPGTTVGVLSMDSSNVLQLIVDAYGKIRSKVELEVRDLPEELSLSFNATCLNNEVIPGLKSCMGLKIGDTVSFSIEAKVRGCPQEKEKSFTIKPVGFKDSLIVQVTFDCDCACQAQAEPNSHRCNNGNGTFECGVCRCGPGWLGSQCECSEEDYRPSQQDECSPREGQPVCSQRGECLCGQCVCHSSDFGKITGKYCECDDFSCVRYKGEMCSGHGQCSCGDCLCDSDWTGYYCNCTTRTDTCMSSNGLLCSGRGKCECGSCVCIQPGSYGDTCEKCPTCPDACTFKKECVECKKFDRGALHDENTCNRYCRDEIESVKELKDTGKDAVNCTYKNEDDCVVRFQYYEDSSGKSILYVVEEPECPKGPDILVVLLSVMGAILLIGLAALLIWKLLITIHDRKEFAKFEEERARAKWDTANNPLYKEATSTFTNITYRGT", "test": "HUVEC adhesion to immobilized peptides with function blocking anti-integrin antibodies", "method": "as §2, with “µg/ml)” for “μg/ml)”, “µg/ml).” for “μg/ml).”\nExample 8: Collagen Peptide P-2 Binds and Activates αvβ3 and Stimulates P38MAPK Activation in a Src Dependent Manner It is well established that multiple integrins recognize RGD amino acid motifs within ECM proteins. However, the ability of an integrin to bind distinct RGD epitopes depends in part on its orientation within the parent molecule and the C-terminal amino acid sequences flanking the RGD motif (25-27). Potential cell surface receptors that mediate interactions with the RGDKGE (SEQ ID NO: 1) containing collagen P-2 peptide were identified. The ability of endothelial cells to bind the RGD collagen peptides P-1 and P-2 in the presence or absence of function blocking anti-integrin antibodies was examined."}, "[8]": {"target": "T2, integrin αvβ3 (recombinant) (UniProt P06756 31-992; P05106 27-718)", "T2 construct": "Bought recombinant integrin; also called recombinant integrin receptor αvβ3", "T2 sequence (P06756 31-992 limits assumed, chain 1 of 2)": "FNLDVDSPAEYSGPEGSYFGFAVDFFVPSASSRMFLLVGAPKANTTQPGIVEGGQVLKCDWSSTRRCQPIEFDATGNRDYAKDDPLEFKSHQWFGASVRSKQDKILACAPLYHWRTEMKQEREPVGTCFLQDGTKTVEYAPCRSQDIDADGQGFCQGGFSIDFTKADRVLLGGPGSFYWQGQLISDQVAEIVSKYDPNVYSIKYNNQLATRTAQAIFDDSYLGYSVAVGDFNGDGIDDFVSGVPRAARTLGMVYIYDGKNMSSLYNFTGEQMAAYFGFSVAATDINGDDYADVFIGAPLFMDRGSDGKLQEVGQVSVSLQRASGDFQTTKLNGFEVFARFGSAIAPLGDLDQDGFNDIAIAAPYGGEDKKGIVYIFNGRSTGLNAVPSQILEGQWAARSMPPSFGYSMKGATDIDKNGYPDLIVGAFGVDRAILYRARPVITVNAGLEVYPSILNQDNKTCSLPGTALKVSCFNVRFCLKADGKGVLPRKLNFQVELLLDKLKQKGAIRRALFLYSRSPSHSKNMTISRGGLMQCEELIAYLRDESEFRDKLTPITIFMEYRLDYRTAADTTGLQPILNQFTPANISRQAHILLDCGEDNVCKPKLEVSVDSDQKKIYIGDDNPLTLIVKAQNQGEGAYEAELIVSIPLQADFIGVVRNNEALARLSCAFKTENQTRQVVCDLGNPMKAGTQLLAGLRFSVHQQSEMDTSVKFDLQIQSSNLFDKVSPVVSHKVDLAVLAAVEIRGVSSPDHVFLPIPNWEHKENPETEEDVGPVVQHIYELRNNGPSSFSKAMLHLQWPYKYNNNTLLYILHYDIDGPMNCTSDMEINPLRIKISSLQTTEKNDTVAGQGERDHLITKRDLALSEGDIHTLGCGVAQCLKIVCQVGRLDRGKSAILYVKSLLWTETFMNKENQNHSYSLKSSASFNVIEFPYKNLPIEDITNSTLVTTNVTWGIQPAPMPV", "T2 sequence (P05106 27-718 limits assumed, chain 2 of 2)": "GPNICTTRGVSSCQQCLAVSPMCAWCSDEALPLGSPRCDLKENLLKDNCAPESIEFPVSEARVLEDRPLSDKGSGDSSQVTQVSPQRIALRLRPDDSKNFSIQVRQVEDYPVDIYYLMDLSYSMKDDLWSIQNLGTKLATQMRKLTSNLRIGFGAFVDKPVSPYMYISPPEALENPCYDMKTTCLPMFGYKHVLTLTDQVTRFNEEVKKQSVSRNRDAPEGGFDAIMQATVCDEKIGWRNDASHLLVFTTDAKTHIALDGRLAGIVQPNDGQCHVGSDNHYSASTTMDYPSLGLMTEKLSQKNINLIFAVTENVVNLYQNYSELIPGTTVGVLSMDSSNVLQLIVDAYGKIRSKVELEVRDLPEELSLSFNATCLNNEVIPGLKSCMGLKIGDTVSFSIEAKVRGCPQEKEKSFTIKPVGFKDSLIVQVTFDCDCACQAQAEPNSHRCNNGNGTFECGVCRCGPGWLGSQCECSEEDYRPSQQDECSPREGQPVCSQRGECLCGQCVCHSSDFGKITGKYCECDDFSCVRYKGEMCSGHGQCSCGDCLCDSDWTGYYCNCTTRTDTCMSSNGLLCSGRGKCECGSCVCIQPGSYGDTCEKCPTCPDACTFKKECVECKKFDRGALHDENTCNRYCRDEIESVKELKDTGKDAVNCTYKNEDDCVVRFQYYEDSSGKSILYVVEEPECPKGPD", "test": "solid-phase binding assay, integrin on immobilized PGF peptide (100 ug/ml)", "method": "Plates were coated with 25 µg/ml of native or denatured (boiled 15 minutes) collagen. Collagen epitope peptide PGF and Cont-peptides were immobilized at 100 ug/ml. Integrins (0-2.0 µg/ml) were diluted in binding buffer containing 20 mM Tris, 15 mM NaCl, 1 mM MgCl2, 0.2 mM MnCl2, 0.5% BSA pH 7.4 as described (13). Integrins were allowed to bind for 1 hr and plates washed and incubated with anti-integrin antibodies (1:100 dilution) for 1 hr. Plates were washed and incubated with HRP-labeled secondary antibodies (1:5000 dilution). In a second assay, integrins (0.5 µg/ml) were coated in binding buffer and plates were washed, blocked as before and denatured (boiled 15 minutes) collagen was added (0-10.0 µg/ml). Denatured collagen was detected with anti-collagen antibody (1:1000). For integrin blocking ELISAs, wells were coated with denatured collagen and pre-treated (0.1 µg/ml) with anti-HU177 or control antibody. Following washing, wells were incubated with integrins (2.0 µg/ml) and binding was detected as described. Assays were carried out at least 3 times."}}, "data": [{"molecule": "COc1cccc(-c2cc(=O)c3ccccc3o2)c1N", "note": "[MEK inhibitor (PD98059), PD98059]", "values": [{"measurement": "FGF-2 stimulated fibroblast migration on denatured collagen", "setting": "fibroblasts", "result": "blocked"}]}, {"molecule": "CQGPSGAPGEC [P-C, control peptide lacking the RGD tri-peptide motif, reference compound]", "values": [{"measurement": "induction of CAM angiogenesis as compared to no treatment", "setting": "[1]", "result": "not"}, {"measurement": "human dermal fibroblast adhesion to immobilized peptide", "setting": "human dermal fibroblasts", "result": "failed to support interactions"}, {"measurement": "HRMVEC adhesion to immobilized peptide", "setting": "[2]", "result": "failed to support interactions"}, {"measurement": "HMVEC adhesion to immobilized peptide", "setting": "[3]", "result": "failed to support interactions"}, {"measurement": "HUVEC adhesion to immobilized peptide", "setting": "[4]", "result": "failed to support adhesion"}, {"measurement": "CAM inflammation following stimulation with peptide", "setting": "[5]", "result": "Minimal evidence of tissue inflammation"}]}, {"molecule": "FGF-2: Fibroblast growth factor-2 from R&D Systems, used to stimulate CAMs", "values": [{"measurement": "CAMs showing robust formation of thick granulation tissue", "setting": "[6]; FGF-2 stimulation in the absence of cortisone acetate, FIG. 3E", "result": "approximately 50%"}, {"measurement": "macrophage infiltration of the CAMs, enhancement as compared to control", "setting": "[6]; FGF-2 stimulation without cortisone acetate, FIG. 3D", "result": "over 2 fold"}, {"measurement": "increase in levels of circulating XL313 epitope", "setting": "XL313 epitope", "result": 2, "unit": "fold"}]}, {"molecule": "CKGDRGDAPGC", "note": "[Synthetic collagen RGD containing peptide P-1 (CKGDRGDAPGC)]", "values": [{"measurement": "binding result", "setting": "[7]", "result": "binds"}]}, {"molecule": "CPGFPGFC", "note": "[Collagen PGF-peptide (CPGFPGFC), synthetic HU177 epitope]", "values": [{"measurement": "binding result", "setting": "[8]", "result": "no binding"}]}]}
